In patent US20260231994A1, “TASTE-ENHANCING COMPOSITION, METHOD FOR PRODUCING SAME, FOOD PRODUCT, AND METHOD FOR ENHANCING TASTE OF FOOD PRODUCT” (HOUSE FOODS GROUP INC., priority 2023, published 2026):

Experiments:
Type in all cases: in vivo
[1] = Experiment 6 sensory evaluation of cyclic dipeptides, “middle fullness (enhanced thickness)”
Experimental: (§1) An aqueous solution in which the concentration of each of the cyclic dipeptides shown in the table described below is set to be the same as its concentration in the heat-treated coriander prepared in 1.1. described above, as estimated from the ratio of the peak area of the cyclic dipeptides to the peak area of the internal standard (47 μg/g of L-lysine-^13C6 monohydrochloride) (hereinafter referred to as “heat-treated coriander equivalent aqueous solution”) was prepared. An aqueous solution in which the concentration of each of the cyclic dipeptides is set to be the same as its concentration in the heat-treated paprika of Example 203 prepared in 2.1 described above (hereinafter referred to as “heat-treated paprika equivalent aqueous solution”) was also prepared. Cyclic dipeptides prepared by the applicant were used in this experiment. As a cyclic dipeptide comprising Leu/Ile, a mixture comprising equal parts of cyclic dipeptide comprising Leu and cyclic dipeptide comprising Ile was used.
(§2) Common and reduced-sodium curry rouxes were prepared according to the procedures described in (1) and (2) of 1.3. described above.
(§3) Two dispersions of 44 g of the aforesaid reduced-sodium curry roux dispersed in 300 g of hot water were prepared. To one of them was added the heat-treated coriander equivalent solution or heat-treated paprika equivalent aqueous solution of the individual cyclic dipeptides shown in the table described below so as to be in the final concentration of 0.5% (w/w) or 1.0% (w/w), respectively.
(§4) Forty-four grams of the aforesaid common curry roux was dispersed in 300 g of hot water.
(§5) The dispersion of reduced-sodium curry roux dispersed in hot water and the dispersion of common curry roux dispersed in hot water were used as comparative controls, and the strength of the flavor was evaluated by three evaluators on the basis of the following evaluation criteria from the viewpoint of “top sharp saltiness”, “middle fullness (enhanced thickness) and “boosting of last flavor (aftertaste).”
(§6) The average of the evaluated scores was defined as “F” when it was 1.0 or lower, “C” when it was 1.1 or higher and 1.9 or lower, “B” when it was 2.0 or higher and 2.5 or lower, “A” when it was 2.6 or higher and 2.9 or lower, and “AA” when it was 3.0 or higher.
(§7) In the table described below, “ID” refers to the compound ID described above. The items of “coriander 0.5%” and “coriander 1.0%” refer to the addition of the aforesaid heat-treated coriander equivalent aqueous solution of cyclic dipeptide so that the final concentrations may be 0.5% (w/w) and 1.0% (w/w), respectively. The items of “paprika 0.5%” and “paprika 1.0%” refer to the addition of the aforesaid heat-treated paprika equivalent aqueous solution of cyclic dipeptide so that the final concentration may be 0.5% (w/w) and 1.0% (w/w), respectively.

[2] = Experiment 6 sensory evaluation of cyclic dipeptides, “top sharp saltiness”
Experimental: as §1, §2, §3, §4, §5, §6, §7

[3] = Experiment 6 sensory evaluation of cyclic dipeptides, “boosting of last flavor (aftertaste)”
Experimental: as §1, §2, §3, §4, §5, §6, §7

[4] = Additive amount coriander 0.5%, reduced-sodium curry roux
[5] = heat-treated coriander equivalent aqueous solution of cyclic dipeptide, final 1.0% (w/w) in reduced-sodium curry roux dispersion
[6] = heat-treated coriander equivalent aqueous solution of cyclic dipeptide, final 1.0% (w/w) in reduced-sodium curry roux dispersion, 3 evaluators
[7] = Additive amount coriander 0.5% (heat-treated coriander equivalent aqueous solution, final 0.5% (w/w)), reduced-sodium curry roux
[8] = Additive amount paprika 0.5%, reduced-sodium curry roux
[9] = heat-treated paprika equivalent aqueous solution of cyclic dipeptide, final 1.0% (w/w) in reduced-sodium curry roux dispersion
[10] = heat-treated paprika equivalent aqueous solution of cyclic dipeptide, final 1.0% (w/w) in reduced-sodium curry roux dispersion, 3 evaluators
[11] = Additive amount paprika 0.5% (heat-treated paprika equivalent aqueous solution, final 0.5% (w/w)), reduced-sodium curry roux

| Substance | Middle fullness Average [1, 4] [points] | Middle fullness Evaluation [1, 4] | Middle fullness Evaluation [1, 5] | Middle fullness Average [1, 6] [points] | Top sharp saltiness Average [2, 7] [points] | Top sharp saltiness Evaluation [2, 4] | Top sharp saltiness Evaluation [2, 5] | Top sharp saltiness Average [2, 6] [points] | Bosting of last flavor Average [3, 4] [points] | Bosting of last flavor Evaluation [3, 4] | Bosting of last flavor Evaluation [3, 5] | Bosting of last flavor Average [3, 6] [points] | Middle fullness Average [1, 8] [points] | Middle fullness Evaluation [1, 8] | Middle fullness Evaluation [1, 9] | Middle fullness Average [1, 10] [points] | Top sharp saltiness Average [2, 11] [points] | Top sharp saltiness Evaluation [2, 8] | Top sharp saltiness Evaluation [2, 9] | Top sharp saltiness Average [2, 10] [points] | also measured |
| --- | --- | --- | --- | --- | --- | --- | --- | --- | --- | --- | --- | --- | --- | --- | --- | --- | --- | --- | --- | --- | --- |
| cyclic (Arg-Leu/Ile) [Coriander ID 22] | 2.6 | A (“A” when it was 2.6 or higher and 2.9 or lower) | B (“B” when it was 2.0 or higher and 2.5 or lower) | 2.5 | 2.6 | A (“A” when it was 2.6 or higher and 2.9 or lower) | B (“B” when it was 2.0 or higher and 2.5 or lower) | 2.0 | 2.7 | A (“A” when it was 2.6 or higher and 2.9 or lower) | A (“A” when it was 2.6 or higher and 2.9 or lower) | 2.8 | – | – | – | – | – | – | – | – | – |
| cyclic (Glu-Glu) | – | – | – | – | – | – | – | – | – | – | – | – | 2.3 | B (“B” when it was 2.0 or higher and 2.5 or lower) | B (“B” when it was 2.0 or higher and 2.5 or lower) | 2.5 | 2.0 | B (“B” when it was 2.0 or higher and 2.5 or lower) | B (“B” when it was 2.0 or higher and 2.5 or lower) | 2.2 | Bosting of last flavor Average [3, 8]: 2.5 points; Bosting of last flavor Evaluation [3, 8]: B (“B” when it was 2.0 or higher and 2.5 or lower); Bosting of last flavor Evaluation [3, 9]: B (“B” when it was 2.0 or higher and 2.5 or lower); Bosting of last flavor Average [3, 10]: 2.2 points |
| cyclic (Pro-Pro) [Coriander ID 18] | 2.5 | B (“B” when it was 2.0 or higher and 2.5 or lower) | A (“A” when it was 2.6 or higher and 2.9 or lower) | 2.7 | 2.2 | B (“B” when it was 2.0 or higher and 2.5 or lower) | B (“B” when it was 2.0 or higher and 2.5 or lower) | 2.3 | 2.3 | B (“B” when it was 2.0 or higher and 2.5 or lower) | B (“B” when it was 2.0 or higher and 2.5 or lower) | 2.5 | – | – | – | – | – | – | – | – | – |
| cyclic (Gly-Ser) [Coriander ID 5] | 2.0 | B (“B” when it was 2.0 or higher and 2.5 or lower) | B (“B” when it was 2.0 or higher and 2.5 or lower) | 2.3 | 1.7 | C (“C” when it was 1.1 or higher and 1.9 or lower) | C (“C” when it was 1.1 or higher and 1.9 or lower) | 1.8 | 2.2 | B (“B” when it was 2.0 or higher and 2.5 or lower) | B (“B” when it was 2.0 or higher and 2.5 or lower) | 2.3 | – | – | – | – | – | – | – | – | – |
| cyclic (Gly-Ala) [Coriander ID 57] | 2.0 | B (“B” when it was 2.0 or higher and 2.5 or lower) | B (“B” when it was 2.0 or higher and 2.5 or lower) | 2.5 | 2.0 | B (“B” when it was 2.0 or higher and 2.5 or lower) | B (“B” when it was 2.0 or higher and 2.5 or lower) | 2.2 | 2.3 | B (“B” when it was 2.0 or higher and 2.5 or lower) | A (“A” when it was 2.6 or higher and 2.9 or lower) | 2.7 | – | – | – | – | – | – | – | – | – |
| cyclic (Val-Arg) [Coriander ID 20] | 3.3 | AA (“AA” when it was 3.0 or higher) | B (“B” when it was 2.0 or higher and 2.5 or lower) | 2.0 | 2.7 | A (“A” when it was 2.6 or higher and 2.9 or lower) | C (“C” when it was 1.1 or higher and 1.9 or lower) | 1.7 | 3.7 | AA (“AA” when it was 3.0 or higher) | B (“B” when it was 2.0 or higher and 2.5 or lower) | 2.2 | – | – | – | – | – | – | – | – | – |
| cyclic (Gly-Leu/Ile) [Coriander ID 25] | – | – | – | – | – | – | – | – | – | – | – | – | 2.7 | A (“A” when it was 2.6 or higher and 2.9 or lower) | A (“A” when it was 2.6 or higher and 2.9 or lower) | 2.7 | 3.0 | AA (“AA” when it was 3.0 or higher) | A (“A” when it was 2.6 or higher and 2.9 or lower) | 2.8 | Bosting of last flavor Average [3, 8]: 3.0 points; Bosting of last flavor Evaluation [3, 8]: AA (“AA” when it was 3.0 or higher); Bosting of last flavor Evaluation [3, 9]: A (“A” when it was 2.6 or higher and 2.9 or lower); Bosting of last flavor Average [3, 10]: 2.7 points |
| cyclic (Phe-Asp) [Coriander ID 34] | – | – | – | – | – | – | – | – | – | – | – | – | 2.8 | A (“A” when it was 2.6 or higher and 2.9 or lower) | AA (“AA” when it was 3.0 or higher) | 3.2 | 3.0 | AA (“AA” when it was 3.0 or higher) | AA (“AA” when it was 3.0 or higher) | 3.2 | Bosting of last flavor Average [3, 8]: 2.7 points; Bosting of last flavor Evaluation [3, 8]: A (“A” when it was 2.6 or higher and 2.9 or lower); Bosting of last flavor Evaluation [3, 9]: AA (“AA” when it was 3.0 or higher); Bosting of last flavor Average [3, 10]: 3.2 points |
| cyclic (Phe-Thr) [Coriander ID 37] | – | – | – | – | – | – | – | – | – | – | – | – | 2.5 | B (“B” when it was 2.0 or higher and 2.5 or lower) | B (“B” when it was 2.0 or higher and 2.5 or lower) | 2.2 | 1.8 | C (“C” when it was 1.1 or higher and 1.9 or lower) | B (“B” when it was 2.0 or higher and 2.5 or lower) | 2.3 | Bosting of last flavor Average [3, 8]: 2.7 points; Bosting of last flavor Evaluation [3, 8]: A (“A” when it was 2.6 or higher and 2.9 or lower); Bosting of last flavor Evaluation [3, 9]: B (“B” when it was 2.0 or higher and 2.5 or lower); Bosting of last flavor Average [3, 10]: 2.3 points |
